In patent publication US11964953B2, “Substituted aminothiazoles as DGKzeta inhibitors for immune activation” (Bayer Aktiengesellschaft, priority 2020, dated 2024):

These molecules were tested against human DGKζ (Homo sapiens (Human), UniProt Q13574) (assay: Human DGKζ kinase activity inhibition assay (ADP-Glo)). Conditions: IC50, in vitro human DGKζ kinase activity inhibition assay.
Format: biochemical
Summary of the method: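 Enzyme was C-terminally FLAG-tagged full-length recombinant human DGKζ from baculovirus-infected insect cells. Substrate preparation used octyl-β-D-glucopyranoside in 50 mM MOPS pH 7.4 with sonication; ADP generated was quantified by ADP-Glo luminescence as activity measure.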

human DGKζ, sequence (Q13574 other isoform, or with tags, fused parts or gaps): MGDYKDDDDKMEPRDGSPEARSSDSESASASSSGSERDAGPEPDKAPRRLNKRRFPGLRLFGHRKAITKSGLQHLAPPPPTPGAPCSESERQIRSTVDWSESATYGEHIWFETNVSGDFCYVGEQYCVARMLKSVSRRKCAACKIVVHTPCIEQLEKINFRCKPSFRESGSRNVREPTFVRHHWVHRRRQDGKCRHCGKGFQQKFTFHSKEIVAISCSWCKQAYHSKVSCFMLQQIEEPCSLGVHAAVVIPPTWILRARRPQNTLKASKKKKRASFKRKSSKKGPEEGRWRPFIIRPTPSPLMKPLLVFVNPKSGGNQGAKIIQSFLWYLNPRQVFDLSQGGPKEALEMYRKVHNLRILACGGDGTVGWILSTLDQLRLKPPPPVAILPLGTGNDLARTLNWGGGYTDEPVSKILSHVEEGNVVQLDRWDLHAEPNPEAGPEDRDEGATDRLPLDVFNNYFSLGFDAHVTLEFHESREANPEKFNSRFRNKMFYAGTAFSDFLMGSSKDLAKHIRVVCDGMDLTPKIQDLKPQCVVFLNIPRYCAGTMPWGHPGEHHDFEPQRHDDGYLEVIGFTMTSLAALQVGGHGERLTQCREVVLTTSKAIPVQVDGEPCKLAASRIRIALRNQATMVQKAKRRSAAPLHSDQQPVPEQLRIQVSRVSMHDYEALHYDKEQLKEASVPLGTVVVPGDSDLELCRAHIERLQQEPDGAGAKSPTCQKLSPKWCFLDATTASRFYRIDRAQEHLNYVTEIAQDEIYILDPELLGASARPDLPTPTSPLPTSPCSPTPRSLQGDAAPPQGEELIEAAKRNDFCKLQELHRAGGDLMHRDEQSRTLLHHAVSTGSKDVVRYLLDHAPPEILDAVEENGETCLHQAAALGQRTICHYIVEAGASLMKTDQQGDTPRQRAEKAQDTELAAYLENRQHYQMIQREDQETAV

Row | Structure (SMILES) | IC50
1 | Cc1cccc(N(C)C(=O)COc2ccc(C(=O)c3sc(N(c4ccc(F)cc4)C(C)C(N)=O)nc3N)cc2)c1 (racemic) [Example 140, rac-2-(N-[4-amino-5-[4-[2-(N,3-dimethylanilino)-2-oxo-ethoxy]benzoyl]thiazol-2-yl]-4-fluoro-anilino)propanamide] | 37.5 nM

Same assay, conditions: in vitro human DGKζ kinase activity inhibition assay; read-out: IC50

Row | Structure (SMILES) | IC50
2 | CC(C(N)=O)N(c1ccc(F)cc1)c1nc(N)c(C(=O)c2ccc(OCC(=O)N(C)Cc3ccco3)cc2)s1 (racemic) [Example 135, rac-2-(N-[4-amino-5-[4-[2-[2-furylmethyl(methyl)amino]-2-oxo-ethoxy]benzoyl]thiazol-2-yl]-4-fluoro-anilino)propanamide] | 49.5 nM
3 | CC(C(N)=O)N(c1ccc(F)cc1)c1nc(N)c(C(=O)c2ccc(OCC(=O)N(C)Cc3cccnc3)cc2)s1 (racemic) [Example 137, rac-2-(N-[4-amino-5-[4-[2-[methyl(3-pyridylmethyl)amino]-2-oxo-ethoxy]benzoyl]thiazol-2-yl]-4-fluoro-anilino)propanamide] | 238 nM
4 | Cc1ccccc1N(C)C(=O)COc1ccc(C(=O)c2sc(N(c3ccc(F)cc3)C(C)C(N)=O)nc2N)cc1 (racemic) [Example 138, rac-2-(N-[4-amino-5-[4-[2-(N,2-dimethylanilino)-2-oxo-ethoxy]benzoyl]thiazol-2-yl]-4-fluoro-anilino)propanamide] | 61.6 nM
5 | CC(C(N)=O)N(c1ccc(F)cc1)c1nc(N)c(C(=O)c2ccc(OCC(=O)NCC(O)CO)cc2)s1 (racemic) [Example 147, 2-(N-[4-amino-5-[4-[2-((2RS),3-dihydroxypropylamino)-2-oxo-ethoxy]benzoyl]thiazol-2-yl]-4-fluoro-anilino)propanamide] | 291 nM
6 | CC(C)NC(=O)C(C)(C)Oc1ccc(C(=O)c2sc(N(c3ccc(F)cc3)C(C)C(N)=O)nc2N)cc1 (racemic) [Example 154, rac-2-[4-[4-amino-2-(N-(2-amino-1-methyl-2-oxo-ethyl)-4-fluoro-anilino)thiazole-5-carbonyl]phenoxy]-N-isopropyl-2-methyl-propanamide] | 55.6 nM
7 | CC(C(N)=O)N(c1ccc(F)cc1)c1nc(N)c(C(=O)c2ccc(O)cc2)s1 (racemic) [Example 157, rac-2-(N-[4-amino-5-(4-hydroxybenzoyl)thiazol-2-yl]-4-fluoro-anilino)propanamide] | 190 nM
8 | CC(C(N)=O)N(c1ccc(F)cc1)c1nc(N)c(C(=O)c2ccc(OCc3ccccc3)cc2)s1 (racemic) [Example 158, rac-2-(N-[4-amino-5-(4-benzyloxybenzoyl)thiazol-2-yl]-4-fluoro-anilino)propanamide] | 6.71 nM
9 | COc1ccc(C(=O)c2sc(N(c3ccc(F)c(Cl)c3)C(C)C(N)=O)nc2N)cc1 (racemic) [Example 161, rac-2-(N-[4-amino-5-(4-methoxybenzoyl)thiazol-2-yl]-3-chloro-4-fluoro-anilino)propanamide] | 15 nM
10 | CC(C(N)=O)N(c1ccc(F)c(F)c1)c1nc(N)c(C(=O)c2ccc(OC(F)F)nc2)s1 (racemic) [Example 163, rac-2-(N-[4-amino-5-[6-(difluoromethoxy)pyridine-3-carbonyl]thiazol-2-yl]-3,4-difluoro-anilino)propanamide] | 9 nM
11 | CC(C(N)=O)N(c1ccc(Cl)c(F)c1)c1nc(N)c(C(=O)c2ccc(OCc3ccccc3)cc2)s1 (racemic) [Example 166, rac-2-(N-[4-amino-5-(4-benzyloxybenzoyl)thiazol-2-yl]-4-chloro-3-fluoro-anilino)propanamide] | 3 nM
12 | CC(=O)OCCOc1ccc(C(=O)c2sc(N(c3ccc(F)cc3)C(C)C(N)=O)nc2N)cc1 (racemic) [Example 168, rac-2-[4-[4-amino-2-(N-(2-amino-1-methyl-2-oxo-ethyl)-4-fluoro-anilino)thiazole-5-carbonyl]phenoxy]ethyl acetate] | 19 nM
13 | CC(C(N)=O)N(c1ccc(F)cc1)c1nc(N)c(C(=O)c2ccc(OCc3ccccc3)cc2)s1 (racemic) [Example 170, rac-2-(N-[4-amino-5-(4-benzyloxybenzoyl)thiazol-2-yl]-4-fluoro-anilino)propanamide] | 7 nM
14 | CC(C(N)=O)N(c1ccc(F)cc1)c1nc(N)c(C(=O)c2ccc(I)cc2)s1 (racemic) [Example 171, rac-2-(N-[4-amino-5-(4-iodobenzoyl)thiazol-2-yl]4-fluoro-anilino)propanamide] | 11 nM
15 | COc1ccc(C(=O)c2sc(N(c3ccc(Cl)c(F)c3)C(C)C(N)=O)nc2N)cn1 (racemic) [Example 172, rac-2-(N-[4-amino-5-(6-methoxypyridine-3-carbonyl)thiazol-2-yl]-4-chloro-3-fluoro-anilino)propanamide] | 46 nM
16 | CC(C(N)=O)N(c1ccc(F)cc1)c1nc(N)c(C(=O)c2ccc(Oc3ccccc3)cc2)s1 (racemic) [Example 173, rac-2-(N-[4-amino-5-(4-phenoxybenzoyl)thiazol-2-yl]-4-fluoro-anilino)propanamide] | 25 nM
17 | COc1ccc(N(c2nc(N)c(C(=O)c3ccc(OC(F)F)cc3)s2)C(C)C(N)=O)cc1 (racemic) [Example 174, rac-2-(N-[4-amino-5-[4-(difluoromethoxy)benzoyl]thiazol-2-yl]-4-methoxy-anilino)propanamide] | 51 nM
18 | COc1ccc(C(=O)c2sc(N(c3ccc(F)cc3)C(C)C(N)=O)nc2C)cc1 (racemic) [Example 176, rac-2-(4-fluoro-N-[5-(4-methoxybenzoyl)-4-methyl-thiazol-2-yl]anilino)propanamide] | 91 nM

Continued, values first:

Row | IC50 | Structure (SMILES)
19 | 740 nM | CC(C(N)=O)N(c1ccc(F)cc1)c1nc(N)c(C(=O)c2ccc(OCC(=O)N3CCC(N(C)C)CC3)cc2)s1 (racemic) [Example 136, rac-2-(N-[4-amino-5-[4-[2-[4-(dimethylamino)-1-piperidyl]-2-oxo-ethoxy]benzoyl]thiazol-2-yl]-4-fluoro-anilino)propanamide]
20 | 389 nM | CC(C(N)=O)N(c1ccc(F)cc1)c1nc(N)c(C(=O)c2ccc(OCC(=O)NCC(C)(C)C)cc2)s1 (racemic) [Example 141, rac-2-(N-[4-amino-5-[4-[2-(2,2-dimethylpropylamino)-2-oxo-ethoxy]benzoyl]thiazol-2-yl]-4-fluoro-anilino)propanamide]
21 | 231 nM | Cc1nc(N(c2ccc(F)cc2)C(C)C(N)=O)sc1C(=O)c1ccccc1 (racemic) [Example 156, rac-2-(N-(5-benzoyl-4-methyl-thiazol-2-yl)-4-fluoro-anilino)propanamide]
22 | 214 nM | CC(C(N)=O)N(c1ccc(F)cc1)c1nc(N)c(C(=O)c2ccc(C(F)F)nc2)s1 (racemic) [Example 159, rac-2-(N-[4-amino-5-[6-(difluoromethyl)pyridine-3-carbonyl]thiazol-2-yl]-4-fluoro-anilino)propanamide]
23 | 200 nM | CC(C(N)=O)N(c1ccc(F)cc1)c1nc(N)c(C(=O)c2ccc(OC(C)(C)C(N)=O)cc2)s1 (racemic) [Example 155, rac-2-[4-[4-amino-2-(N-(2-amino-1-methyl-2-oxo-ethyl)-4-fluoro-anilino)thiazole-5-carbonyl]phenoxy]-2-methyl-propanamide]
24 | 187 nM | CC(C(N)=O)N(c1ccc(F)c(Cl)c1)c1nc(N)c(C(=O)c2ccncc2)s1 (racemic) [Example 160, rac-2-(N-[4-amino-5-(pyridine-4-carbonyl)thiazol-2-yl]-3-chloro-4-fluoro-anilino)propanamide]
25 | 56.9 nM | Cc1ccc(N(C)C(=O)COc2ccc(C(=O)c3sc(N(c4ccc(F)cc4)C(C)C(N)=O)nc3N)cc2)cc1 (racemic) [Example 139, rac-2-(N-[4-amino-5-[4-[2-(N,4-dimethylanilino)-2-oxo-ethoxy]benzoyl]thiazol-2-yl]-4-fluoro-anilino)propanamide]
26 | 40 nM | CC(C(N)=O)N(c1ccc(F)cc1)c1nc(N)c(C(=O)c2ccc(NC(=O)C3CC3)cc2)s1 (racemic) [Example 177, rac-4-[4-[4-amino-2-(N-(2-amino-1-methyl-2-oxo-ethyl)-4-fluoro-anilino)thiazole-5-carbonyl]phenyl]cyclopropanecarboxamide]
27 | 22 nM | CC(C(N)=O)N(c1ccc(F)cc1)c1nc(N)c(C(=O)c2ccc(OC(F)F)nc2)s1 (racemic) [Example 162, rac-2-(N-[4-amino-5-[6-(difluoromethoxy)pyridine-3-carbonyl]thiazol-2-yl]-4-fluoro-anilino)propanamide]
28 | 20 nM | CC(C(N)=O)N(c1ccc(F)cc1)c1nc(N)c(C(=O)c2ccc([N+](=O)[O-])cc2)s1 (racemic) [Example 175, rac-2-(N-[4-amino-5-(4-nitrobenzoyl)thiazol-2-yl]-4-fluoro-anilino)propanamide]
29 | 7 nM | CC(C(N)=O)N(c1ccc(Cl)c(F)c1)c1nc(N)c(C(=O)c2ccc(OC(F)F)nc2)s1 (racemic) [Example 164, rac-2-(N-[4-amino-5-[6-(difluoromethoxy)pyridine-3-carbonyl]thiazol-2-yl]-4-chloro-3-fluoro-anilino)propanamide]
30 | 3 nM | CC(C(N)=O)N(c1ccc(F)c(F)c1)c1nc(N)c(C(=O)c2ccc(OCc3ccccc3)cc2)s1 (racemic) [Example 165, rac-2-(N-[4-amino-5-(4-benzyloxybenzoyl)thiazol-2-yl]-3,4-difluoro-anilino)propanamide]
31 | 3 nM | CC(C(N)=O)N(c1ccc(F)cc1)c1nc(N)c(C(=O)c2ccc(NC(=O)OCc3ccccc3)cc2)s1 (racemic) [Example 169, rac-benzyl N-[4-[4-amino-2-(N-(2-amino-1-methyl-2-oxo-ethyl)-4-fluoro-anilino)thiazole-5-carbonyl]phenyl]carbamate]
32 | 2 nM | CC(C(N)=O)N(c1ccc(F)c(F)c1)c1nc(N)c(C(=O)c2ccc(NC(=O)OCc3ccccc3)cc2)s1 (racemic) [Example 167, rac-benzyl N-[4-[4-amino-2-(N-(2-amino-1-methyl-2-oxo-ethyl)-3,4-difluoro-anilino)thiazole-5-carbonyl]phenyl]carbamate]
